Test results as given in article PMC6689975, “Novel Cell Wall Antifungals Reveal a Special Synergistic Activity in pbr1 Mutants Resistant to the Glucan Synthesis Antifungals Papulacandins and Echinocandins” (Frontiers in Microbiology, 2019).
In brackets after ≈: the same amount, converted by molar mass. Where two headings read alike, the source gives them in different places.

Columns and labels:
Assay in all cases: microbe, parasite or virus in culture
C. albicans wild-type = test system: C. albicans wild-type; parameters: species or system whole yeast cells; micro-culture broth dilution MIC in YES at 30 C, turbidity, complete growth inhibition; conditions: Candida albicans; YES medium, C. albicans strain f
[1] = test system: Candida albicans C. a.^f (Tables 5, 6); parameters: species or system yeast; micro tube dilution MIC in YES (± 1.2 M sorbitol), complete growth inhibition by turbidity; conditions: 48 h
Method: (§1) Standard YEPD (Yeast Extract, Peptone, Dextrose) ([Sherman, 1990]), YEPD+S (YEPD with 1.2M sorbitol), YES (Yeast Extract, Dextrose and Supplements of Adenine, Histidine, Leucine, Uracil and Lysine) ([Alfa et al., 1993]) and YES+S (YES with 1.2 M sorbitol) ([Ribas et al., 1991]; [Ishiguro et al., 1997]), media were used for determination of MIC values of the tested compounds. A stock solution of 10 mg/ml of each tested compounds was prepared in DMSO and serial dilutions in DMSO were prepared. The final concentration of DMSO was 2% in the YEPD medium. […] The serial dilutions of compounds were dispensed into test tubes with 1 ml of YEPD or YEPD+S to make final concentrations of 200, 100, 50, 25, 12.5, 6.26, 3.125, 1.6, 0.8 and 0.4 μg/ml. The tested yeast strains were previously grown in YEPD, YEPD+S, YES or YES+S agar plates at 30°C for 48 h. Micro-culture assays of large numbers of samples were analyzed as described) ([Martins et al., 2011]). Essentially early log-phase cells were grown in YEPD, YEPD+S, YES or YES+S (1.2 M sorbitol) medium at 30°C, and diluted to cell density of 4 X 10^6 cells/ml in YEPD, YEPD+S, YES or YES+S medium and aliquots of 100 μl were dispensed into each small test tube (3 ml test tube size). Then, another 100 μl of YEPD, YEPD+S, YES or YES+S with the corresponding dilution of each compound at 2X concentration (4% DMSO) was added. The final volume was 200 μl, with the cells diluted to of 2 X 10^6 cells/ml and each compound diluted to 1X final concentration, containing increasing concentrations of antifungal (0, 1, 2, 5, 10, 20, 50, 100 and 200 μg/ml) or an equivalent volume of solvent (2% DMSO). The cells were grown at 30°C in an orbital roller and turbidity was analyzed after 24 and 48 h of incubation. The MIC was determined as the minimal concentration of tested compound that produced complete cell growth inhibition and kept the medium clear. The MIC values were calculated from at least three independent experiments.

[2] = test system: T1, Saccharomyces cerevisiae S. c.^d (wild-type CVX12-3A); parameters: species or system yeast; micro tube dilution MIC in YES (± 1.2 M sorbitol), complete growth inhibition by turbidity; conditions: 48 h
T1 construct: CVX12-3A
Method: as §1

[3] = test system: T2, Schizosaccharomyces pombe S. p.^a (wild-type 972 h-); parameters: species or system yeast; micro tube dilution MIC in YES (± 1.2 M sorbitol), complete growth inhibition by turbidity; conditions: 48 h
T2 construct: 972 h-
Method: as §1

SMILES | MIC (C. albicans wild-type) | MIC ([1]; YES + 1.2 M sorbitol) | MIC ([2]; YES + 1.2 M sorbitol) | MIC ([3]; YES + 1.2 M sorbitol) | MIC ([1]; read-out: MIC) | MIC ([2]; read-out: MIC) | MIC ([3]; read-out: MIC)
O=c1oc2ccccc2cc1-c1ccccc1CO [compound 15] | > 200 µg/mL | > 200 µg/mL | > 200 µg/mL | > 200 µg/mL |  |  | 
O=c1oc2ccc3ccccc3c2cc1-c1ccccc1CO [compound 12] | > 200 µg/mL | > 200 µg/mL | > 200 µg/mL | > 200 µg/mL |  |  | 
CC[C@H](C)C[C@H](C)CCCCCCCCC(=O)N[C@H]1C[C@@H](O)[C@@H](NCCN)NC(=O)[C@@H]2[C@@H](O)CCN2C(=O)[C@H]([C@H](O)CCN)NC(=O)[C@H]([C@H](O)[C@@H](O)c2ccc(O)cc2)NC(=O)[C@@H]2C[C@@H](O)CN2C(=O)[C@H]([C@@H](C)O)NC1=O [caspofungin] |  |  |  |  | 50 µg/mL (≈ 45.7 µM) | 0.5 µg/mL (≈ 0.457 µM) | 10 µg/mL (≈ 9.15 µM)
